Data on one compound can be found in patent EP4755386A1, “SKIN PERMEATION PROMOTER AND SKIN PERMEATION PROMOTION METHOD” (Toyo Sugar Refining Co., Ltd., priority 2023, dated 2025).

For the data set the following is noted: pH 7.4.

Method: As a bioactive substance, flavone (manufactured by Tokyo Chemical Industry Co., Ltd., NO. H0721) was used.
Any substance in the substance group A and a bioactive substance were added to 10 mL of distilled water and mixed to prepare a solution (or suspension), which was used as a test liquid. The substance in the substance group A was added in an amount such that the concentration in the test liquid was 10 mg/mL. The bioactive substance was added in an amount such that the concentration in the test liquid was 250 µg/mL. As a control, a test liquid (flavone only) to which a substance in the substance group A was not added was also prepared.
A receptor part of a Franz-type vertical diffusion cell was filled with a phosphate buffer (pH 7.4) containing 0.5% sodium taurocholate, and a Strat-M membrane for a transdermal diffusion test (manufactured by Merck) was attached as a permeable membrane. After 400 µL of the test liquid was dropped on the donor side, a receptor liquid was sampled over time. The amount of the bioactive substance in the sampled receptor liquid was quantified by high performance liquid chromatography. The experiment was performed with N = 1.

With `C[C@@H]1O[C@@H](O[C@H]2[C@H](Oc3cc(O)c4c(c3)O[C@H](c3ccc(O)cc3)CC4=O)O[C@H](CO)[C@@H](O)[C@@H]2O)[C@H](O)[C@H](O)[C@H]1O` [naringin, Naringin], the “skin permeation amount of flavone” value is “hardly changed”.
